Measured values as given in article PMC12423301, “Astrocytic monoamine oxidase B (MAOB)–gamma-aminobutyric acid (GABA) axis as a molecular brake on repair following spinal cord injury” (Signal Transduction and Targeted Therapy, 2025).
“Also recorded” adds a separate entry of the source.

Assays:
rat SCI model = assay: Immunohistochemistry of injured rat spinal cord; assay type: in vivo, Sprague-Dawley (SD) rats
Experimental: Immunohistochemistry was performed as previously described.[70] The tissue sections were blocked and treated with primary antibodies. After overnight incubation at 4 °C, species-specific fluorescent secondary antibodies were applied for visualization. The tissue sections were then stained with 4’,6-diamidino-2-phenylindole (DAPI) during mounting. This protocol allows a detailed assessment of various cellular markers involved in SCI and recovery processes.
The secondary antibodies used included FITC-donkey anti-mouse IgG (H + L) (1:150, 715-095-151), Cy^TM3-donkey anti-mouse IgG (H + L) (1:600, 715-165-151), FITC-donkey anti-rabbit IgG (H + L) (1:150, 711-095-152), Alexa Fluor 594-donkey anti-rabbit IgG (H + L) (1:500, 711-585-152), Alexa Fluor 647-donkey anti-rabbit IgG (H + L) (1:500, 711-605-152), Cy^TM3-donkey anti-chicken IgG (H + L) (1:600, 703-165-155), DyLightTM405-donkey anti-chicken IgY + + (H + L) (1:600, 703-476-155), Alexa Fluor 488-donkey anti-chicken IgY (IgG) (H + L) (1:500, 703-545-155), Alexa Fluor 594-donkey anti-chicken IgY (IgG) (H + L) (1:500, 703-585-155), Alexa Fluor 488-donkey anti-goat IgG (H + L) (1:500, 705-545-003), and Alexa Fluor 647-donkey anti-goat IgG (H + L) (1:300, 705-606-147). All secondary antibodies were purchased from Jackson ImmunoResearch.
The fluorescence images were observed via confocal laser scanning microscopy (LSM700 or LSM710, Carl Zeiss), and analyzed via the ImageJ (NIH) software. For visualizing the mCh-positive signals of proliferating or proliferated cells, Z-stack images acquired in 1-μm steps were processed for 3D surface rendering of mCh-positive signals using IMARIS software (version 9.0.1, Oxford Instruments).

[1] = system: GABAA receptor-mediated currents from lamina II dorsal horn neurons; assay: Tonic GABA current recording; assay type: in vivo, rat; conditions: SCI + KDS 2w, PI 10w
APP/PS1 transgenic mice = assay: Tonic GABA current, neuronal firing and DAO compensation in APP/PS1 mice; assay type: in vivo, mouse
[2] = system: Alzheimer’s disease mouse model; conditions: cited from earlier work
[3] = system: white matter stroke rat model; conditions: cited from earlier work
[4] = SCI+KDS 10mpk, 20mpk, and 30mpk vs SCI+V, PI 10w
[5] = SCI+KDS 1d/Re vs SCI+V and SCI+KDS 1d/No, PI 10w

For `CS(=O)(=O)O.C[C@H](NCc1ccc(-c2ccc(C(F)(F)F)cc2)cc1)C(N)=O` [KDS2010, (S)-2-(((4’-Trifluoromethylbiphenyl-4-yl)methyl)amino)propanamide methane-sulfonate], the GFAP intensity (rat SCI model; KDS2010 treatment compared with SCI + V) was “significantly reduced”, the “intensity of TrkB in neurons, oligodendrocytes, and astrocytes” value (rat SCI model; MAOB inhibition from the subacute phase, PI 10w) was “significantly increased” and the “neurons positive for both Ki67 and NeuN” value (rat SCI model; SCI + KDS 2w vs SCI + V, PI 10w) was “significantly increased; also recorded: significant increase”. The “intensity of GABA in GFAP-positive astrocytes” value (rat SCI model; SCI + KDS 2w, 10 mpk, PI 10w) was “significantly recovered; also recorded: significantly attenuated”, the MAP2 intensity (rat SCI model; SCI + KDS 2w, PI 10w) was “fully restored” and the MBP intensity (rat SCI model; SCI + KDS 2w, PI 10w) was “significant recovery”. The “expression of astrocytic GFAP and MAOB” value (rat SCI model; SCI + KDS 2w, PI 10w) was “returned to normal levels”, the “intensity of proBDNF in astrocytes and neurons” value (rat SCI model; SCI + KDS 2w, PI 10w) was “significantly increased” and the “number of NeuN-positive neurons” value (rat SCI model; SCI + KDS 2w, PI 10w) was “significant recovery”. The “oligodendrocytes positive for both Ki67 and MBP” value (rat SCI model; SCI + KDS 2w, PI 10w) was “substantial population; also recorded: significantly increased”, the “intensity of GABA and astrocytic DAO” value (rat SCI model; SCI+KDS 6w) was “significantly reduced” and the “intensity of proBDNF” value (rat SCI model; SCI+KDS 6w vs SCI+V) was “significantly increased”. The “astrocytic GFAP and MAOB expression” value (rat SCI model; SCI+KDS 6w vs SCI+V, PI 14w) was “significantly decreased”, the “intensity of MAP2” value (rat SCI model; SCI+KDS 6w vs SCI+V, PI 14w) was “significant increase” and the “intensity of MBP-positive TrkB” value (rat SCI model; SCI+KDS 6w vs SCI+V, PI 14w) was “significantly increased”. The “intensities of GFAP and GABA” value (rat SCI model; [4]) was “significantly reduced”, the “intensity of MAP2” value (rat SCI model; [4]) was “significant increase” and the “intensity of MBP” value (rat SCI model; [4]) was “significant recovery”. The “intensity of MBP-positive TrkB” value (rat SCI model; [4]) was “significant recovery”, the “intensity of astrocytic DAO” value (rat SCI model; [4]) was “significantly decreased” and the “intensity of proBDNF” value (rat SCI model; [4]) was “significantly increased”. For the same compound, the GFAP levels (rat SCI model; SCI+KDS 1d/No) was “persistently high GFAP levels”, the “alternative diamine oxidase (DAO) pathway” value (rat SCI model; SCI+KDS 1d/No) was “activated” and the “intensity of GABA and astrocytic DAO” value (rat SCI model; SCI+KDS 1d/Re) was “significantly reduced”. The “intensity of proBDNF” value (rat SCI model; SCI+KDS 1d/Re vs SCI+V and SCI+KDS 1d/No) was “significantly increased”, the “astrocytic GFAP and MAOB expression” value (rat SCI model; [5]) was “significantly decreased” and the “intensity of MAP2” value (rat SCI model; [5]) was “significant increase”. The “astrocytic MAOB expression” value (rat SCI model; all doses (10mpk, 20mpk, 30mpk) vs SCI+V, PI 10w) was “significant reduction”, the “expression of CSPGs (neurocan, phosphacan)” value (rat SCI model; rat SCI, KDS2010 treatment) was “notably reduced” and the “tonic GABA current density” value [1] was “significantly recovered”. For the same compound, the “tonic GABA current in granule cells of the dentate gyrus” value (APP/PS1 transgenic mice; 1 mg/kg and 10 mg/kg vs induced control group) was “dose-dependent reduction”, the neuronal firing (APP/PS1 transgenic mice; 4-week repeated dosing test, at 2 weeks and 4 weeks) was “maintained at a level similar to that of the normal group” and the “DAO (diamine oxidase) compensatory mechanism” value (APP/PS1 transgenic mice; long-term administration) was “did not induce”. For the same compound, the “learning and memory impairment” value [2] was “reverse learning and memory impairment” and the motor performance [3] was “improve motor performance”.
